Structures can show the parent of a compound that is named as a salt. Bounds are passed on as bounds.

human σ1 receptor, sequence (Q99720 whole entry): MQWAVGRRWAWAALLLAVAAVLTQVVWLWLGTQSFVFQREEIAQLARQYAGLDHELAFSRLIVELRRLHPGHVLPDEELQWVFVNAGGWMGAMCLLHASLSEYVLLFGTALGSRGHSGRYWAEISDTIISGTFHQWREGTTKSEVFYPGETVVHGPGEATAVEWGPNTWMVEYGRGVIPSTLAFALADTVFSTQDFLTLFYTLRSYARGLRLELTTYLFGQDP

One test concerns the target human σ1 receptor (Homo sapiens, UniProt Q99720). As to the kind of experiment: biochemical. In kind it is binding. The arrangement: μ and σ1 dual binding: key to the marks not given beside the values.
Conditions: not given
For `CC1OC2(CCN(CCc3ccc(C#N)cc3)CC2)CN(c2ccccc2)C1=O.Cl` (centres unmarked) [Example 76, 4-(2-(2-methyl-3-oxo-4-phenyl-1-oxa-4,9-diazaspiro[5.5]undecan-9-yl)ethyl)benzonitrile hydrochloride], the “μ and σ1 dual binding” value is listed as “++”.
`CC1OC2(CCN(CCc3ccccc3)CC2)CN(c2cccnc2F)C1=O` (centres unmarked) [Example 213, 4-(2-fluoropyridin-3-yl)-2-methyl-9-phenethyl-1-oxa-4,9-diazaspiro[5.5]undecan-3-one] registered a Ki below 100 nM.
In turn, `CC1OC2(CCN(CCc3ccccc3)CC2)CN(Cc2ccccn2)C1=O` (centres unmarked) [Example 157, 2-methyl-9-phenethyl-4-(pyridin-2-ylmethyl)-1-oxa-4,9-diazaspiro[5.5]undecan-3-one hydrochloride] gave a Ki below 100 nM.
On the same count and under the same terms, the value for `CC1OC2(CCN(CCc3cncc(F)c3)CC2)CN(c2ccccc2)C1=O` (centres unmarked) [Example 114, 9-(2-(5-fluoropyridin-3-yl)ethyl)-2-methyl-4-phenyl-1-oxa-4,9-diazaspiro[5.5]undecan-3-one hydrochloride] was below 500 nM; that for `CC1OC2(CCN(CCc3ccc(N)cc3)CC2)CN(c2ccccc2)C1=O` (centres unmarked) [Example 228, 9-(4-aminophenethyl)-2-methyl-4-phenyl-1-oxa-4,9-diazaspiro[5.5]undecan-3-one] was below 500 nM; that for `OCCC1CN(c2ccccc2)CC2(CCN(CCc3ccccc3)CC2)O1` (centres unmarked) [Example 323, 2-(9-phenethyl-4-phenyl-1-oxa-4,9-diazaspiro[5.5]undecan-2-yl)ethanol hydrochloride] was below 500 nM.
With `C[C@@H]1OC2(CCN(CCc3ccccc3F)CC2)CN(c2cnccc2C(F)(F)F)C1=O.Cl` [Example 127a, (S)-9-(2-fluorophenethyl)-2-methyl-4-(4-(trifluoromethyl)pyridin-3-yl)-1-oxa-4,9-diazaspiro[5.5]undecan-3-one hydrochloride], the “μ and σ1 dual binding” value is “++”.
`C[C@@H]1OC2(CCN(C[C@H](O)c3ccccc3)CC2)CN(c2ccccc2)C1=O` [Example 151d, (S)-9-((R)-2-hydroxy-2-phenylethyl)-2-methyl-4-phenyl-1-oxa-4,9-diazaspiro[5.5]undecan-3-one]: the Ki was below 500 nM.
In turn, `O=C1C(CC2CCOCC2)OC2(CCN(CCc3ccccc3)CC2)CN1c1ccccc1F` (centres unmarked) [Example 311, 4-(2-fluorophenyl)-9-phenethyl-2-((tetrahydro-2H-pyran-4-yl)methyl)-1-oxa-4,9-diazaspiro[5.5]undecan-3-one hydrochloride] had a Ki below 500 nM.
Consider `CC1OC2(CCN(CCc3cccc(C(N)=O)c3)CC2)CN(c2ccccc2)C1=O` (centres unmarked) [Example 266, 3-(2-(2-methyl-3-oxo-4-phenyl-1-oxa-4,9-diazaspiro[5.5]undecan-9-yl)ethyl)benzamide], for which the Ki is below 500 nM.
For the compound `Cc1cc(C)n(CCN2CCC3(CC2)CN(c2ccccc2)C(=O)C(C)O3)n1.Cl` (centres unmarked) [Example 77, 9-(2-(3,5-dimethyl-1H-pyrazol-1-yl)ethyl)-2-methyl-4-phenyl-1-oxa-4,9-diazaspiro[5.5]undecan-3-one hydrochloride], the “μ and σ1 dual binding” value is given as “++”.
On to `CC1OC2(CCN(CCc3cccc(C(F)(F)F)n3)CC2)CN(Cc2ccc(F)cn2)C1=O.Cl` (centres unmarked) [Example 49, 4-((5-fluoropyridin-2-yl)methyl)-2-methyl-9-(2-(6-(trifluoromethyl)pyridin-2-yl)ethyl)-1-oxa-4,9-diazaspiro[5.5]undecan-3-one hydrochloride], for which the “μ and σ1 dual binding” value is given as “++”.
Still for that read-out and setting: the value for `Nc1nc(CCN2CCC3(CC2)CN(Cc2ccc(C(F)(F)F)cn2)C(=O)C2(CC2)O3)cs1` [Example 308, 8-[2-(2-aminothiazol-4-yl)ethyl]-12-{[5-(trifluoromethyl)pyridin-2-yl]methyl}-4-oxa-8,12-diazadispiro[2.1.5.3]tridecan-13-one trihydrochloride] was “++”.

The test is the same for the next values; noted with them: combined class from Ki-σ1 (human σ1 receptor, A1) and Ki-μ (human μ-opioid receptor, A2) radioligand binding.
Regarding `CC1OC2(CCN(CCc3ccc(N)cn3)CC2)CN(c2ccccc2F)C1=O` (centres unmarked) [Example 230, 9-(2-(5-aminopyridin-2-yl)ethyl)-4-(2-fluorophenyl)-2-methyl-1-oxa-4,9-diazaspiro[5.5]undecan-3-one], the “μ and σ1 dual binding” value is given as “++”.

Staying with this test, now noted: read-out: μ and σ1 dual binding.
Take `CC1OC2(CCN(CCC(=O)Nc3ccccc3)CC2)CN(c2ccccc2)C1=O` (centres unmarked) [Example 144, 3-(2-methyl-3-oxo-4-phenyl-1-oxa-4,9-diazaspiro[5.5]undecan-9-yl)-N-phenylpropanamide hydrochloride]: the Ki is below 500 nM.
Same read-out and setting: the value for `CC1OC2(CCN(CCC(=O)N(C)c3ccccc3)CC2)CN(c2ccccc2)C1=O` (centres unmarked) [Example 100, N-methyl-3-(2-methyl-3-oxo-4-phenyl-1-oxa-4,9-diazaspiro[5.5]undecan-9-yl)-N-phenylpropanamide hydrochloride] was below 500 nM; that for `O=C1N(c2ccccc2)CC2(CCN(CCc3cccc([N+](=O)[O-])c3)CC2)OC12CC2` [Example 92, 8-(3-nitrophenethyl)-12-phenyl-4-oxa-8,12-diazaspiro[2.1.5.3]tridecan-13-one] was above 500 nM.
Turning to `O=C1CO[C@]2(CCN(Cc3ccccc3)C2)CN1c1ccccc1` [Example 350, (S)-2-benzyl-9-phenyl-6-oxa-2,9-diazaspiro[4.5]decan-8-one], the Ki is above 500 nM.
Still for that read-out and setting: next, `CC(=O)Nc1ccnc(CCN2CCC3(CC2)CN(c2ccccc2)C(=O)C(C)O3)c1` (centres unmarked) [Example 253, N-(2-(2-(2-methyl-3-oxo-4-phenyl-1-oxa-4,9-diazaspiro[5.5]undecan-9-yl)ethyl)pyridin-4-yl)acetamide hydrochloride]: above 500 nM; `CC(=O)Nc1ccc(CCN2CCC3(CC2)CN(c2ccccc2)C(=O)C(C)O3)nc1` (centres unmarked) [Example 252, N-(6-(2-(2-methyl-3-oxo-4-phenyl-1-oxa-4,9-diazaspiro[5.5]undecan-9-yl)ethyl)pyridin-3-yl)acetamide]: above 500 nM; `O=C1N(CCOC2CCCCO2)CC2(CCN(CCc3ccccc3)CC2)OC12CC2` (centres unmarked) [Example 185, 12-(2-((tetrahydro-2H-pyran-2-yl)oxy)ethyl)-8-phenethyl-4-oxa-8,12-diazadispiro[2.1.5.3]tridecan-13-one]: above 500 nM.
On the same count and under the same terms, the value for `O=C(CN1CCC2(CC1)CN(c1ccccc1)C(=O)C1(CC1)O2)c1ccccc1` [Example 97, 8-(2-oxo-2-phenylethyl)-12-phenyl-4-oxa-8,12-diazadispiro[2.1.5.3]tridecan-13-one] was above 500 nM; that for `CC(=O)Nc1cc(CCN2CCC3(CC2)CN(c2ccccc2)C(=O)C(C)O3)ccn1` (centres unmarked) [Example 255, N-(4-(2-(2-methyl-3-oxo-4-phenyl-1-oxa-4,9-diazaspiro[5.5]undecan-9-yl)ethyl)pyridin-2-yl)acetamide hydrochloride] was above 500 nM.
Same read-out and setting: next, `CC1OC2(CCN(CCc3ccccc3)CC2)CN(c2ncccc2C(F)(F)F)C1=O` (centres unmarked) [Example 218, 2-methyl-9-phenethyl-4-(3-(trifluoromethyl)pyridin-2-yl)-1-oxa-4,9-diazaspiro[5.5]undecan-3-one]: below 500 nM; `CC1OC2(CCN(CCn3nccc3N)CC2)CN(c2ccccc2)C1=O` (centres unmarked) [Example 305, 9-(2-(5-amino-1H-pyrazol-1-yl)ethyl)-2-methyl-4-phenyl-1-oxa-4,9-diazaspiro[5.5]undecan-3-one hydrochloride]: above 500 nM; `CC1OC2(CCN(CCc3ccc(N)nc3)CC2)CN(c2ccccc2)C1=O` (centres unmarked) [Example 280, 9-(2-(6-aminopyridin-3-yl)ethyl)-2-methyl-4-phenyl-1-oxa-4,9-diazaspiro[5.5]undecan-3-one]: above 500 nM.
`N#CCCN1CC2(CCN(CCc3ccccc3)CC2)OC2(CC2)C1=O` [Example 181, 3-[13-oxo-8-phenethyl-4-oxa-8,12-diazadispiro[2.1.5.3]tridecan-12-yl]propanenitrile hydrochloride]: the Ki is above 500 nM.
Same read-out and setting: next, `CNC(=O)CCN1CC2(CCN(CCc3ccccc3)CC2)OC2(CC2)C1=O` [Example 275, N-methyl-3-[13-oxo-8-phenethyl-4-oxa-8,12-diazadispiro[2.1.5.3]tridecan-12-yl]propanamide hydrochloride]: above 500 nM; `CC1OC2(CCN(CCc3csc(N)n3)CC2)CN(c2cnccc2C(F)(F)F)C1=O` (centres unmarked) [Example 309, 9-(2-(2-aminothiazol-4-yl)ethyl)-2-methyl-4-(4-(trifluoromethyl)pyridin-3-yl)-1-oxa-4,9-diazaspiro[5.5]undecan-3-one]: above 500 nM.
With `CC(C)C1OC2(CCN(CCc3cccnc3[N+](=O)[O-])CC2)CN(c2ccccc2F)C1=O` (centres unmarked) [Example 39, 4-(2-fluorophenyl)-2-isopropyl-9-(2-(2-nitropyridin-3-yl)ethyl)-1-oxa-4,9-diazaspiro[5.5]undecan-3-one], the Ki is above 500 nM.
Still for that read-out and setting: next, `CC1OC2(CCN(CCc3ccccc3)CC2)CN(c2cnccc2C(F)(F)F)C1=O` (centres unmarked) [Example 214, 2-methyl-9-phenethyl-4-(4-(trifluoromethyl)pyridin-3-yl)-1-oxa-4,9-diazaspiro[5.5]undecan-3-one hydrochloride]: below 100 nM.
For the compound `Nc1cccc(CCN2CCC3(CC2)CN(c2ccccc2)C(=O)C2(CC2)O3)c1` [Example 231, 8-(3-aminophenethyl)-12-phenyl-4-oxa-8,12-diazadispiro[2.1.5.3]tridecan-13-one], the Ki is above 500 nM.
Same read-out and setting: the value for `CC1OC2(CCN(CCc3cccnc3)CC2)CN(c2ccccc2)C1=O` (centres unmarked) [Example 73, 2-methyl-4-phenyl-9-(2-(pyridin-3-yl)ethyl)-1-oxa-4,9-diazaspiro[5.5]undecan-3-one] was below 500 nM.
For `CC1OC2(CCN(CCc3csc(NC(=O)OC(C)(C)C)n3)CC2)CN(c2cnccc2C(F)(F)F)C1=O` (centres unmarked) [Example 121, tert-butyl (4-(2-(2-methyl-3-oxo-4-(4-(trifluoromethyl)pyridin-3-yl)-1-oxa-4,9-diazaspiro[5.5]undecan-9-yl)ethyl)thiazol-2-yl)carbamate], the Ki was above 500 nM.
Turning to `CC1OC2(CCN(CCc3cccnc3N)CC2)CN(c2cnccc2C(F)(F)F)C1=O` (centres unmarked) [Example 240, 9-(2-(2-aminopyridin-3-yl)ethyl)-2-methyl-4-(4-(trifluoromethyl)pyridin-3-yl)-1-oxa-4,9-diazaspiro[5.5]undecan-3-one hydrochloride], the Ki was above 500 nM.

For the origin of these results see US10703765B2 (priority 2014, dated 2020).
